Reference: US20250129370A1, “METHOD FOR REDUCING HEPATIC TRIGLYCERIDES” (ADAERATA, LIMITED PARTNERSHIP, priority 2022, published 2025)
*: point of attachment. Decanoyl = CCCCCCCCCC(=O)*; CH2Cl = ClC*

Columns and labels:
PC7 = target: T1, PC7 (Homo sapiens, UniProt Q16549); test: s-apoB secretion in IHH cells overexpressing PC7, with pan-proprotein convertase inhibitor; format: cell-based; conditions: naive IHH cells overexpressing PC7 and s-apoB
T1 construct: expressed in transfected cells; host or cells: naïve IHH cells
T1 sequence (Q16549 142-785): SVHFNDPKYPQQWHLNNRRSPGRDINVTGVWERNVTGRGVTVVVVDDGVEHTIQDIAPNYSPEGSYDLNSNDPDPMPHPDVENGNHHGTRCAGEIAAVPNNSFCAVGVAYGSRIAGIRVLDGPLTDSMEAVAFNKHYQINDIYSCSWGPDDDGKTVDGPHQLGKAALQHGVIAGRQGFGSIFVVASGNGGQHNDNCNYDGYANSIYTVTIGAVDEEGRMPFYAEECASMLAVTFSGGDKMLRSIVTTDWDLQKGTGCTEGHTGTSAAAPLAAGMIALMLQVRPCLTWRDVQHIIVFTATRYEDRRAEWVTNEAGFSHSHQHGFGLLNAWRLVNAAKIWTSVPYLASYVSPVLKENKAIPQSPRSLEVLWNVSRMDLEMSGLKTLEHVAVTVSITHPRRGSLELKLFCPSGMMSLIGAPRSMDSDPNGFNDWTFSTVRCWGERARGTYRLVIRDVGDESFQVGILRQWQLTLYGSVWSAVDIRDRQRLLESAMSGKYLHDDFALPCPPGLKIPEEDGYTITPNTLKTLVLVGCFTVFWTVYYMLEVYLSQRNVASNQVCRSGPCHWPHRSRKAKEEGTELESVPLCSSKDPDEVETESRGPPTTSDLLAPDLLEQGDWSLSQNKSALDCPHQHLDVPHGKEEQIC
Experimental: FIGS. 7A-l: PCSK7 can bind apoB in the ER and acts as a molecular chaperone-like facilitating its secretion, and its absence leads to a rapid degradation of apoB by the proteasome. […] (FIG. 7A) Western blot (presented on gel and graphically) of apoB100 and PC7 protein levels in WT and PCSK7^−/− IHH cells. Levels are normalized to α-tubulin. (FIG. 7B) Western blot (presented on gel and graphically) of apoB100 and PC7 protein levels over time (0, 15 and 30 minutes) in WT and PCSK7^−/− IHH cells incubated with cycloheximide (CHX) to block de novo mRNA translation. Levels are normalized to α-tubulin. (FIG. 7C-D) Western blot (presented on gel and graphically) of cellular apoB levels in WT and PCSK7^−/− IHH cells incubated with brefeldin A (BFA) that blocks exit from the endoplasmic reticulum (ER), an autophagy inhibitor 3-methyladenine (3MA), proteasome inhibitors MG132, Lactacystin, DMSO or non treated (NT) controls. (FIG. 7E) Western blot (presented on gel) of cellular apoB levels and polyubiquitinated apoB100 in WT and PCSK7^−/− IHH cells incubated with Lactacystin. (FIG. 7F) Schematic representation of apoB100 and apoB21 protein. […]

[1] = test system: Mouse FL38B hepatocyte cells; test: Lipid droplet accumulation in oleic acid-treated mouse hepatocyte cells; format: cell-based
Experimental: FIGS. 37A-E: Comparison of various ASOs and vitamin E on lipid droplet accumulation in mouse FL38B hepatocytes. (FIG. 37A) Immunocytochemical analysis of mouse FL38B hepatocyte cells incubated for 48 h with oleic acid in the presence of either fluorescent mouse mASO-1, mASO-2 or mASO-7 (not shown) or α-tocopherol (vitamin E) (arrows pointing towards transfected cells, red staining indicate lipid droplets). (FIG. 37B) Quantitative analysis of results expressed in bar graph. (FIGS. 37C-D). The effect of eight ASOs on Pcsk7 mRNA levels as measured by quantitative PCR (qPCR). The experiment was repeated two independent times. *p<0.05 (FIG. 37A) The effect of mASO-1, mASO-2, mASO-7 and Vitamin E on reduction of accumulation of fluorescent triglycerides in cells as estimated by FACS measurement of lipid droplets (LD) by LipidTox™ staining. (FIG. 37E). modifications of ASO by trivalent linkage to N-acetyl-Galactosamine ([…]).
The effect of eight ASOs on Pcsk7 mRNA levels was measured by quantitative PCR (qPCR) (FIG. 37C). Mouse FL38B hepatocyte cells were incubated for 48 h with oleic acid in the presence of either fluorescent (green) mouse mASO-1, mASO-7 or α-tocopherol (vitamin E). […] (FIGS. 37B-37D). Mouse FL38B hepatocyte cells were plated on day 1, ASOs were added on day 2, the media was replaced on day 3 and RNA was extracted on day 4. […]

mice fed a HFFC diet = test: Liver lipid droplets and histopathology in mice recovering from HFFC diet; format: in vivo, mouse; conditions: after 8 weeks recovery and treatment
From the text: FIGS. 39A-D (FIG. 39A) Upper panels—Oil red 0 staining of liver sections control (no treatment), and ASO-2, ASO-7 and α-tocopherol treated mice. Lower panels; Total area of LDs, mean area of LD and LD number in non treated mice or in mice treated with GalNac-ASO-7, GalNac-ASO-2 or α-tocopherol. (FIG. 39B) Liver morphology and fat accumulation measured in terms of liver inflammation, hepatocyte ballooning and steatosis grade in non treated mice or in mice treated with GalNac-ASO-7, GalNac-ASO-2 or α-tocopherol. (FIG. 39C) Extent of fibrosis measured by Sirius red staining in non treated mice or in mice treated with GalNac-ASO-7, GalNac-ASO-2 or α-tocopherol. […]
Eight ASOs against mouse Pcsk7 were tested in mouse FL38B hepatocytes and the best ones, namely ASO2 and ASO7, were modified (FIG. 37D) with covalent linkages to trivalent N-acetyl-Galactosamine (GalNac) residues (FIG. 37E). […] Mice were next injected with 5 mg/kg of either GalNac-ASO7 and GalNac-ASO-2, twice a week for 1 month, whereupon the livers and their partially purified primary hepatocytes were analyzed by RT-qPCR for the levels of Pcsk7 mRNA. […]
The reduction of LD accumulation in mice treated with GalNac-ASO-7 or GalNac-ASO-2 compared to α-tocopherol was next analyzed (FIG. 39A).

Pcsk7 mRNA = test: Liver Pcsk7 mRNA after the recovery period following HFFC diet; format: in vivo, mouse; conditions: after 8 weeks recovery, 500 IU/kg of food
Experimental: The dose-dependent efficacy of these ASOs following their subcutaneous injection in mice was tested for the decrease in total liver Pcsk7 mRNA at 2, 5, 10 and 15 mg/kg, twice a week for 1 month. […] Mice were next injected with 5 mg/kg of either GalNac-ASO7 and GalNac-ASO-2, twice a week for 1 month, whereupon the livers and their partially purified primary hepatocytes were analyzed by RT-qPCR for the levels of Pcsk7 mRNA. […] A program was then set up whereby 8 weeks-old mice were fed a HFFC diet for 16 weeks, after which they were switched to a regular chow diet for another 8 weeks recovery period. The mice were divided into 3 groups of 12 mice each and treated as follows starting from the beginning of the recovery period (FIG. 38C): (1) a control non-treated group; (2) two GalNac-ASO groups subcutaneously injected twice a week for 8 weeks with either GalNac-ASO7 or GalNac-ASO2 at 5 mg/kg; (3) a group fed a chow diet containing Vitamin E (α-tocopherol) at 500 IU/kg of food.
The inventors next compared the levels of Pcsk7 mRNAs in the livers of mice after the 8 weeks recovery period that followed the 16-weeks HFFC diet.

| Compound | chaperone-like activity of PC7 on apoB (s-apoB secretion) (PC7) | accumulation of lipid droplets ([1]; 48 h with oleic acid, immunocytochemistry) | accumulation of fluorescent triglycerides in cells ([1]; FACS measurement of lipid droplets by LipidTox staining) | reduced total area, more abundant but smaller LDs, relative to GalNac-ASO7 (mice fed a HFFC diet) | increase in Pcsk7 mRNA levels (Pcsk7 mRNA) |
| --- | --- | --- | --- | --- | --- |
| Decanoyl-RVKR-CH2Cl | did not block | – | – | – | – |
| Cc1c(C)c2c(c(C)c1O)CC[C@@](C)(CCC[C@H](C)CCC[C@H](C)CCCC(C)C)O2 [α-tocopherol] | – | significantly reduced | best reduction | significantly less | 33% |
